Earlier results as cited in PMC4871512, “Drug-Based Lead Discovery: The Novel Ablative Antiretroviral Profile of Deferiprone in HIV-1-Infected Cells and in HIV-Infected Treatment-Naive Subjects of a Double-Blind, Placebo-Controlled, Randomized Exploratory Trial” (PLoS ONE, 2016).

How the values were obtained:
[1] = system: HIV-infected cell lines and HIV-infected primary cells; details: cited from earlier work
[2] = system: productively infected macrophages; set-up: method as in PMID 7973634; details: cited from earlier work
HIV-1 [3] = system: HIV-1; set-up: method as in PMID 8793010; details: culture; cited from earlier work
human or mouse epithelia = system: human or mouse epithelia; set-up: method as in PMID 24086341; details: concentrations that ablate yeast and HIV-infected cells; cited from earlier work
HIV-1 [4] = system: HIV-1; set-up: method as in PMID 8648207, PMID 9498441, PMID 9952363; details: after 12 weeks on monotherapy; cited from earlier work
HIV-1 [5] = system: HIV-1; set-up: method as in PMID 9715844; details: cited from earlier work
DOHH = system: DOHH; set-up: method as in PMID 12115536; details: clinically relevant concentrations; cited from earlier work
[6] = clinically relevant concentrations

NC(Cn1ccc(=O)c(O)c1)C(=O)O (stereo not drawn) [mimosine]
ribosomal presence of gag mRNA, amount of intra- and extracellular p24, budding of viral particles ([1]; treated HIV-infected cells): suppress

NC(=O)NO [hydroxyurea]
HIV-1 DNA [2]: depleted HIV-1 DNA
viral breakthrough [2]: blocked breakthrough during three weeks of treatment
viral rebound after cessation [2]: did not allow rebound after cessation

Cc1ccnc2c1NC(=O)c1cccnc1N2C1CC1 [nevirapine]
time to viral breakthrough during monotherapy (HIV-1 [3]): ≥ 4 days

Cc1cc(C2CCCCC2)n(O)c(=O)c1 [ciclopirox, 6-cyclohexyl-1-hydroxy-4-methylpyridin-2[1H]-one]
off-drug re-emergence of HIV-1 RNA synthesis, compared with deferiprone ([1]; ciclopirox at 30 μM): gave similar results
antiretroviral activity of the paired 1,2-HOPO chelators [1]: antiretrovirally active
viral breakthrough during monotherapy ([1]; up to 5 weeks of monotherapy): neither allowed breakthrough
acute toxicity at human or mouse epithelia (human or mouse epithelia): does not cause acute toxicity

Cc1cn([C@H]2C[C@H](N=[N+]=[N-])[C@@H](CO)O2)c(=O)[nH]c1=O [zidovudine]
time to viral breakthrough during monotherapy (HIV-1 [3]): ≥ 4 days
viral load decline (HIV-1 [4]): -0.3 log10

CC(=O)N(O)CCCCCNC(=O)CCC(=O)N(O)CCCCCNC(=O)CCC(=O)N(O)CCCCCN [deferoxamine]
dose-related antiretroviral effect in persons living with HIV-1 (HIV-1 [5]): does not display a dose-related antiretroviral effect
ablation of HIV-infected cells [1, 6]: does not ablate HIV-infected cells
antiretroviral activity in culture [1, 6]: does not display antiretroviral activity in culture
suppression of DOHH activity (DOHH): does not achieve maximal suppression of DOHH activity
